From the NIST ThermoML archive (doi:10.1016/j.jct.2018.02.018)
± gives the expanded uncertainty stated by the source.

Assays:
[1] = refractive index (Na D-line) (dimensionless); xn = mol fraction of the nth substance listed; conditions: 100 kPa, Liquid, Standard Abbe refractometry, x1 = 1
[2] = xn = mol fraction of the nth substance listed; conditions: 100 kPa, Liquid, x1 = 1; for speed of sound: Frequency=3 MHz, Single path-length method; for mass density: Vibrating tube method
[3] = 100 kPa, Liquid; for speed of sound: Frequency=3 MHz, Single path-length method; for mass density: Vibrating tube method
[4] = refractive index (Na D-line) (dimensionless); conditions: 100 kPa, Liquid, Standard Abbe refractometry

C[S+](C)[O-] [dimethyl sulfoxide] + CN(C)CCOCCO
Conditions | mass density, [2] [kg/m3] | refractive index, [1] | speed of sound, [2] [m/s]
293.15 K | 1100 ± 4 | 1.479 ± 0.006 | 1503.9 ± 1.5
303.15 K | 1090 ± 4 | 1.475 ± 0.006 | 1469.9 ± 1.5
313.15 K | 1080 ± 4 | 1.47 ± 0.006 | 1436.3 ± 1.5
323.15 K | 1070 ± 4 | 1.466 ± 0.006 | 1403 ± 1.5

CN(C)CCCO [3-dimethylamino-1-propanol]
Conditions | mass density, [3] [kg/m3] | refractive index, [4] | speed of sound, [3] [m/s]
293.15 K | 885 ± 4 | 1.437 ± 0.006 | 1395.8 ± 1.7
298.15 K | 881 ± 4 | 1.435 ± 0.006 | 1377.3 ± 1.7
303.15 K | 877 ± 4 | 1.433 ± 0.006 | 1358.8 ± 1.7
313.15 K | 869 ± 4 | 1.429 ± 0.006 | 1322.1 ± 1.7
323.15 K | 860 ± 4 | 1.425 ± 0.006 | 1285.7 ± 1.7

C[S+](C)[O-] [dimethyl sulfoxide] + NCc1ccccc1
Conditions | mass density, [2] [kg/m3] | refractive index, [1] | speed of sound, [2] [m/s]
293.15 K | 1100 ± 4 | 1.479 ± 0.006 | 1503.9 ± 1.5
303.15 K | 1090 ± 4 | 1.475 ± 0.006 | 1469.9 ± 1.5
313.15 K | 1080 ± 4 | 1.47 ± 0.006 | 1436.3 ± 1.5
323.15 K | 1070 ± 4 | 1.466 ± 0.006 | 1403 ± 1.5

NCc1ccccc1 [benzylamine]
Conditions | mass density, [3] [kg/m3] | refractive index, [4] | speed of sound, [3] [m/s]
293.15 K | 983 ± 4 | 1.544 ± 0.006 | 1579.7 ± 1.7
298.15 K | 978 ± 4 | 1.542 ± 0.006 | 1560.1 ± 1.7
303.15 K | 974 ± 4 | 1.539 ± 0.006 | 1540.2 ± 1.7
313.15 K | 965 ± 4 | 1.534 ± 0.006 | 1500 ± 1.7
323.15 K | 957 ± 4 | 1.529 ± 0.006 | 1461.1 ± 1.7

CN(C)CCOCCO [2-(2-dimethylaminoethoxy)ethanol]
Conditions | mass density, [3] [kg/m3] | refractive index, [4] | speed of sound, [3] [m/s]
293.15 K | 954 ± 4 | 1.442 ± 0.006 | 1403.6 ± 2.4
298.15 K | 950 ± 4 | 1.44 ± 0.006 | 1386.7 ± 2.4
303.15 K | 946 ± 4 | 1.438 ± 0.006 | 1369.9 ± 2.4
313.15 K | 938 ± 4 | 1.435 ± 0.006 | 1336.8 ± 2.4
323.15 K | 930 ± 4 | 1.431 ± 0.006 | 1303.9 ± 2.4

NCCO [2-aminoethan-1-ol]
Conditions | mass density, [3] [kg/m3] | refractive index, [4] | speed of sound, [3] [m/s]
293.15 K | 1016 ± 4 | 1.455 ± 0.006 | 1734.2 ± 1.7
298.15 K | 1012 ± 4 | 1.453 ± 0.006 | 1718.3 ± 1.7
303.15 K | 1008 ± 4 | 1.451 ± 0.006 | 1702.2 ± 1.7
313.15 K | 1000 ± 4 | 1.447 ± 0.006 | 1669.4 ± 1.7
323.15 K | 992 ± 4 | 1.443 ± 0.006 | 1637.3 ± 1.7

C[S+](C)[O-] [dimethyl sulfoxide] + NCCO
Conditions | mass density, [2] [kg/m3] | refractive index, [1] | speed of sound, [2] [m/s]
293.15 K | 1100 ± 4 | 1.479 ± 0.006 | 1503.9 ± 1.5
303.15 K | 1090 ± 4 | 1.475 ± 0.006 | 1469.9 ± 1.5
313.15 K | 1080 ± 4 | 1.47 ± 0.006 | 1436.3 ± 1.5
323.15 K | 1070 ± 4 | 1.466 ± 0.006 | 1403 ± 1.5

C[S+](C)[O-] [dimethyl sulfoxide] + CN(C)CCCO
Conditions | mass density, [2] [kg/m3] | refractive index, [1] | speed of sound, [2] [m/s]
293.15 K | 1100 ± 4 | 1.479 ± 0.006 | 1503.9 ± 1.5
303.15 K | 1090 ± 4 | 1.475 ± 0.006 | 1469.9 ± 1.5
313.15 K | 1080 ± 4 | 1.47 ± 0.006 | 1436.3 ± 1.5
323.15 K | 1070 ± 4 | 1.466 ± 0.006 | 1403 ± 1.5

C[S+](C)[O-] [dimethyl sulfoxide]
Conditions | mass density, [3] [kg/m3] | refractive index, [4] | speed of sound, [3] [m/s]
293.15 K | 1100 ± 4 | 1.479 ± 0.006 | 1503.9 ± 1.5
298.15 K | 1095 ± 4 | 1.477 ± 0.006 | 1486.8 ± 1.5
303.15 K | 1090 ± 4 | 1.475 ± 0.006 | 1469.9 ± 1.5
313.15 K | 1080 ± 4 | 1.47 ± 0.006 | 1436.3 ± 1.5
323.15 K | 1070 ± 4 | 1.466 ± 0.006 | 1403 ± 1.5
